Test results from patent US12673954B2 (BRISTOL-MYERS SQUIBB COMPANY, priority 2021, dated 2026).

How the values were obtained:
[1] = tested on: NF-κB pathway, THP1-Dual™ cells; assay: STING reporter assay in THP1-Dual cells, NF-κB pathway (SEAP, QUANTI-Blue); format: cell-based, human; details: Homo sapiens, THP1-Dual, 20 h, THP1-Dual cells, 10% human plasma, 20 hours; SEAP; 100% activation = 100 μM cGAMP; read-out: NFkB (EC50 μM)
Method in brief: (§1)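 Activation normalised between DMSO-only baseline and 100 μM cGAMP maximum, after 20 h compound exposure (starting at 100 μM final) at 37° C, 5% CO2. Supernatant SEAP (QUANTI-Blue, OD620) reports NF-κB; secreted luciferase (QUANTI-Luc, RLU at 5 min) reports IRF.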

[2] = tested on: IRF pathway, THP1-Dual™ cells; assay: STING reporter assay in THP1-Dual cells, IRF pathway (Lucia luciferase, QUANTI-Luc); format: cell-based, human; details: Homo sapiens, THP1-Dual, 20 h, THP1-Dual cells, 10% human plasma, 20 hours; Lucia luciferase; 100% activation = 100 μM cGAMP; read-out: IRF (EC50 μM)
Method in brief: as §1

Row | SMILES | EC50 [1] [µM] | EC50 [2] [µM]
1 | CNc1nn2cccnc2c1C(=O)NCc1cc2cc(Cl)cc(C(=O)OC)c2o1 [Example 64, Methyl 5-chloro-2-((2-(methylamino)pyrazolo[1,5-a]pyrimidine-3-carboxamido)methyl)benzofuran-7-carboxylate] | > 100 | 68
2 | COC(=O)c1cc(Cl)cc2cc(CNC(=O)c3cncn(C)c3=O)oc12 [Example 65, Methyl 5-chloro-2-((1-methyl-6-oxo-1,6-dihydropyrimidine-5-carboxamido)methyl)benzofuran-7-carboxylate] | 3.1 | 3
3 | CCn1cncc(C(=O)NCc2cc3cc(Cl)cc(C(=O)OC)c3o2)c1=O [Example 66, Methyl 5-chloro-2-((1-ethyl-6-oxo-1,6-dihydropyrimidine-5-carboxamido)methyl)benzofuran-7-carboxylate] | 33 | 28
4 | CCCn1cncc(C(=O)NCc2cc3cc(Cl)cc(C(=O)OC)c3o2)c1=O [Example 67, Methyl 5-chloro-2-((1-propyl-6-oxo-1,6-dihydropyrimidine-5-carboxamido)methyl)benzofuran-7-carboxylate] | 32 | 20
5 | COC(=O)c1cc(Cl)cc2cc(CNC(=O)c3cncc4[nH]cnc34)oc12 [Example 68, Methyl 2-((3H-imidazo[4,5-c]pyridine-7-carboxamido)methyl)-5-chlorobenzofuran-7-carboxylate] | 2.1 | 1.7
6 | COC(=O)c1cc(Cl)cc2cc(CNC(=O)c3cncc4c3ncn4C)oc12 [Example 69, Methyl 5-chloro-2-((3-methyl-3H-imidazo[4,5-c]pyridine-7-carboxamido)methyl)benzofuran-7-carboxylate] | 2.3 | 1.3
7 | COC(=O)c1cc(Cl)cc2cc(CNC(=O)c3cncc4ncn(C)c34)oc12 [Example 70, Methyl 5-chloro-2-((1-methyl-1H-imidazo[4,5-c]pyridine-7-carboxamido)methyl)benzofuran-7-carboxylate] | > 100 | 24
8 | COC(=O)c1cc(Cl)cc2cc(CNC(=O)c3cncc4[nH]c(C)nc34)oc12 [Example 71, Methyl 5-chloro-2-((2-methyl-3H-imidazo[4,5-c]pyridine-7-carboxamido)methyl)benzofuran-7-carboxylate] | 33 | 24
9 | COC(=O)c1cc(Cl)cc2cc(CNC(=O)c3cncc4scnc34)oc12 [Example 72, Methyl 5-chloro-2-((thiazolo[5,4-c]pyridine-7-carboxamido)methyl)benzofuran-7-carboxylate] | 17 | 1.2
10 | COC(=O)c1cc(Cl)cc2cc(CNC(=O)c3cncnc3OC)oc12 [Example 73, Methyl 5-chloro-2-((4-methoxypyrimidine-5-carboxamido)methyl)benzofuran-7-carboxylate] | 2.6 | 2.1
11 | CCOc1ncncc1C(=O)NCc1cc2cc(Cl)cc(C(=O)OC)c2o1 [Example 74, Methyl 5-chloro-2-((4-ethoxypyrimidine-5-carboxamido)methyl)benzofuran-7-carboxylate] | 3.5 | 3.3
12 | COC(=O)c1cc(Cl)cc2cc(Cn3ccc4ncncc4c3=O)oc12 [Example 75, Methyl 5-chloro-2-((5-oxopyrido[4,3-d]pyrimidin-6(5H)-yl)methyl)benzofuran-7-carboxylate] | 37 | 22
13 | COC(=O)c1cc(Cl)cc2cc(Cn3cnc4ccncc4c3=O)oc12 [Example 76, Methyl 5-chloro-2-((4-oxopyrido[4,3-d]pyrimidin-3(4H)-yl)methyl)benzofuran-7-carboxylate] | 4.1 | 3
14 | COC(=O)c1cc(Cl)cc2cc(CN3CCc4ccncc4C3=O)oc12 [Example 77, Methyl 5-chloro-2-((1-oxo-3,4-dihydro-2,7-naphthyridin-2(1H)-yl)methyl)benzofuran-7-carboxylate] | 6.3 | 5.5
15 | COC(=O)c1cc(Cl)cc2cc(Cn3ccc4ccncc4c3=O)oc12 [Example 78, Methyl 5-chloro-2-((1-oxo-2,7-naphthyridin-2(1H)-yl)methyl)benzofuran-7-carboxylate] | 3.7 | 3.4
16 | COC(=O)c1cc(Cl)cc2cc([C@H](C)NC(=O)c3cnn4cccnc34)oc12 [Example 79, Methyl (S)-5-chloro-2-(1-(pyrazolo[1,5-a]pyrimidine-3-carboxamido)ethyl)benzofuran-7-carboxylate] | 1.7 | 1.5
17 | COC(=O)c1cc(Br)cc2cc(CNC(=O)c3cnn4cccnc34)oc12 [Example 80, Methyl 5-bromo-2-((pyrazolo[1,5-a]pyrimidine-3-carboxamido)methyl)benzofuran-7-carboxylate] | 1.1 | 0.8

Row | SMILES | EC50 [1] [µM] | EC50 [2] [µM]
18 | COC(=O)c1cc(Br)cc2cc(CN3CCc4ccncc4C3=O)oc12 [Example 81, Methyl 5-bromo-2-((1-oxo-3,4-dihydro-2,7-naphthyridin-2(1H)-yl)methyl)benzofuran-7-carboxylate] | 22 | 16
19 | COC(=O)c1cc(Br)cc2cc(CN3Cc4ccncc4C3=O)oc12 [Example 82, Methyl 5-bromo-2-((3-oxo-1,3-dihydro-2H-pyrrolo[3,4-c]pyridin-2-yl)methyl)benzofuran-7-carboxylate] | 20 | 27
20 | COC(=O)c1cc(Br)cc2cc(CN3Cc4ncncc4C3=O)oc12 [Example 83, Methyl 5-bromo-2-((5-oxo-5,7-dihydro-6H-pyrrolo[3,4-d]pyrimidin-6-yl)methyl)benzofuran-7-carboxylate] | 48 | 37
21 | COC(=O)Cc1cc(Br)cc2cc(CNC(=O)c3cnn4cccnc34)oc12 [Example 84, Methyl 2-(5-bromo-2-((pyrazolo[1,5-a]pyrimidine-3-carboxamido)methyl)benzofuran-7-yl)acetate] | 27 | 30
22 | COC(=O)c1cc(C)cc2cc(Cn3ccc4ccncc4c3=O)oc12 [Example 85, Methyl 5-methyl-2-((1-oxo-2,7-naphthyridin-2(1H)-yl)methyl)benzofuran-7-carboxylate] | 3.6 | 3.5
23 | COC(=O)c1cc(C)cc2cc(Cn3cnc4ccncc4c3=O)oc12 [Example 86, Methyl 5-methyl-2-((4-oxopyrido[4,3-d]pyrimidin-3(4H)-yl)methyl)benzofuran-7-carboxylate] | 1.8 | 1.7
24 | COC(=O)c1cc(C)cc2cc(CN3CCc4ccncc4C3=O)oc12 [Example 87, Methyl 5-methyl-2-((1-oxo-3,4-dihydro-2,7-naphthyridin-2(1H)-yl)methyl)benzofuran-7-carboxylate] | 5.8 | 5.5
25 | COC(=O)c1cc(C)cc2cc(CN3Cc4ccncc4C3=O)oc12 [Example 88, Methyl 5-methyl-2-((3-oxo-1,3-dihydro-2H-pyrrolo[3,4-c]pyridin-2-yl)methyl)benzofuran-7-carboxylate] | 20 | 21
26 | COC(=O)c1cc(C)cc2cc(CNC(=O)c3cnn4cccnc34)oc12 [Example 89, Methyl 5-methyl-2-((pyrazolo[1,5-a]pyrimidine-3-carboxamido)methyl)benzofuran-7-carboxylate] | 0.19 | 0.21
27 | COC(=O)c1cc(C)cc2cc(CNC(=O)c3cnn4cc(C)cnc34)oc12 [Example 90, Methyl 5-methyl-2-((6-methylpyrazolo[1,5-a]pyrimidine-3-carboxamido)methyl)benzofuran-7-carboxylate] | 3 | 2.2
28 | COC(=O)c1cc(C)cc2cc(CNC(=O)c3cncc4[nH]cnc34)oc12 [Example 91, Methyl 2-((3H-imidazo[4,5-c]pyridine-7-carboxamido)methyl)-5-methylbenzofuran-7-carboxylate] | 1.5 | 1.2
29 | COC(=O)c1cc(C)cc2cc(CNC(=O)c3cncc4cccnc34)oc12 [Example 92, methyl 2-((1,6-naphthyridine-8-carboxamido)methyl)-5-methylbenzofuran-7-carboxylate] | 0.81 | 0.8
30 | COC(=O)c1cc(C)cc2cc(CNC(=O)c3c(N)nn4cccnc34)oc12 [Example 93, Methyl 2-((2-aminopyrazolo[1,5-a]pyrimidine-3-carboxamido)methyl)-5-methylbenzofuran-7-carboxylate] | 6 | 3.7
31 | COC(=O)c1cc(C)cc2cc(CNC(=O)c3cncnc3OC)oc12 [Example 94, Methyl 2-((4-methoxypyrimidine-5-carboxamido)methyl)-5-methylbenzofuran-7-carboxylate] | 2.1 | 1.8
32 | CCOc1ncncc1C(=O)NCc1cc2cc(C)cc(C(=O)OC)c2o1 [Example 95, Methyl 2-((4-ethoxypyrimidine-5-carboxamido)methyl)-5-methylbenzofuran-7-carboxylate] | 16 | 13
33 | COC(=O)Cc1cc(C)cc2cc(CNC(=O)c3cnn4cccnc34)oc12 [Example 98, Methyl 2-(5-methyl-2-((pyrazolo[1,5-a]pyrimidine-3-carboxamido)methyl)benzofuran-7-yl)acetate] | 10 | 11
34 | COC(=O)c1cc(C2CC2)cc2cc(CNC(=O)c3cnn4cccnc34)oc12 [Example 99, Methyl 5-cyclopropyl-2-((pyrazolo[1,5-a]pyrimidine-3-carboxamido)methyl)benzofuran-7-carboxylate] | 12 | 17
